Experiment [1] concerns the target Nuclear receptor subfamily 4immunitygroup A member 1 (Homo sapiens, UniProt P22736). The experiment in a line: Agonist activity at human Nur77 LBD transiently transfected in HEK293T cells incubated for 16 hrs by Gal4-hybrid reporter gene based Dual-glo luciferase assay. The class given is cell-based.
The target of experiment [2] is Nuclear receptor subfamily 4 group A member 3 (Homo sapiens, UniProt Q92570). In words: Agonist activity at human NOR-1 LBD transiently transfected in HEK293T cells assessed as maximal activation incubated for 16 hrs by Gal4-hybrid reporter gene based Dual-glo luciferase assay relative to control. The class given is cell-based. Particulars: filed as agonist. A general note: In a reporter assay the amount or activity of a reporter protein is the signal.

The target of experiment [3] is T1, Peroxisome proliferator-activated receptor alpha (Homo sapiens) (UniProt Q07869).
T1 sequence (whole entry): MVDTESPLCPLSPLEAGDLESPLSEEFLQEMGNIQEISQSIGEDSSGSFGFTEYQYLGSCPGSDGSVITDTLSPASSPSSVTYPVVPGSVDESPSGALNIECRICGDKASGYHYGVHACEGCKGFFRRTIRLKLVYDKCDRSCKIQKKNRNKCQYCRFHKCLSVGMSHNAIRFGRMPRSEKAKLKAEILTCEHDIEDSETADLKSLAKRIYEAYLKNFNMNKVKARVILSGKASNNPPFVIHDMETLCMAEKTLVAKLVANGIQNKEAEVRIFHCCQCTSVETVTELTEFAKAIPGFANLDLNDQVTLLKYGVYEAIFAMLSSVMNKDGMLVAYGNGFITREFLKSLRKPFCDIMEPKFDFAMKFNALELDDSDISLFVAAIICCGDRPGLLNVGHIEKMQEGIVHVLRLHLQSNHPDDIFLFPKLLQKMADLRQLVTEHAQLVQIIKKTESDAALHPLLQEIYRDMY
The experiment in a line: Agonist activity at PPARalpha LBD (unknown origin) transiently transfected in HEK293T cells at 1 uM incubated for 16 hrs by Gal4-hybrid reporter gene based Dual-glo luciferase assay. The class given is cell-based.

The target of experiment [4] is T2, Vitamin D3 receptor (Homo sapiens) (UniProt P11473).
T2 sequence (whole entry): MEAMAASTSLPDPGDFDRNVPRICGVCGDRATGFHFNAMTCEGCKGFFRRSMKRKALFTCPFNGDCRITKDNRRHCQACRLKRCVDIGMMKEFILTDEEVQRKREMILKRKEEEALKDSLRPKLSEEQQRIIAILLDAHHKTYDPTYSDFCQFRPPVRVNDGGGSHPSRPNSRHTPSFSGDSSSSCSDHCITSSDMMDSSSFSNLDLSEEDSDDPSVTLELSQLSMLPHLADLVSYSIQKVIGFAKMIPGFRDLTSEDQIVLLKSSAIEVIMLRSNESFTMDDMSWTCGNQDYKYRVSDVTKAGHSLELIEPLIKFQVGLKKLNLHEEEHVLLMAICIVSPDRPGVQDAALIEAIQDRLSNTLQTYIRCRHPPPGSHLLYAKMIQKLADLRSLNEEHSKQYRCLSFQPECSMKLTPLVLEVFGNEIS
The experiment in a line: Agonist activity at VDR LBD (unknown origin) transiently transfected in HEK293T cells at 1 uM incubated for 16 hrs by Gal4-hybrid reporter gene based Dual-glo luciferase assay. The class given is cell-based.

The target in experiment [5] is T3, Retinoic acid receptor RXR-alpha (Homo sapiens) (UniProt P19793).
T3 sequence (whole entry): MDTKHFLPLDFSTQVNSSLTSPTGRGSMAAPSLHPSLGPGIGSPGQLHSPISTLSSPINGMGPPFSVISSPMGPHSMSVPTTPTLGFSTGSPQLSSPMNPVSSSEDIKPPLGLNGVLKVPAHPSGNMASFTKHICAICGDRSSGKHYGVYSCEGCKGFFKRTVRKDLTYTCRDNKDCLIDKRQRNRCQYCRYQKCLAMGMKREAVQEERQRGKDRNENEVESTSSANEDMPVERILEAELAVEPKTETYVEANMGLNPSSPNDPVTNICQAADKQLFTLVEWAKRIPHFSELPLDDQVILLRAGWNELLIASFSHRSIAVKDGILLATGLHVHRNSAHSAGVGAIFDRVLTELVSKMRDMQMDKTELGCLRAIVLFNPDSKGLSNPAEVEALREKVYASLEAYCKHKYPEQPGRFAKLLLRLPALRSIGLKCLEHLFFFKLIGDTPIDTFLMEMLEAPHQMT
In words: Agonist activity at human full length RXRalpha transiently transfected in HEK293T cells at 1 uM incubated for 16 hrs by Gal4-hybrid reporter gene based Dual-glo luciferase assay. The class given is cell-based.

Experiment [6] is described as follows: Selectivity ratio for agonist activity at PPARalpha LBD (unknown origin) transiently transfected in HEK293T cells to agonist activity at human Nur77 LBD transiently transfected in HEK293T cells. The class given is cell-based.
Experiment [7] can be described thus: Selectivity ratio for agonist activity at VDR LBD (unknown origin) transiently transfected in HEK293T cells to agonist activity at human Nur77 LBD transiently transfected in HEK293T cells. The class given is cell-based.
Experiment [8] is described as follows: Selectivity ratio for agonist activity at RXRalpha LBD (unknown origin) transiently transfected in HEK293T cells to agonist activity at human Nur77 LBD transiently transfected in HEK293T cells. The class given is cell-based.
Experiment [9] can be described thus: Selectivity ratio for agonist activity at PPARgamma LBD (unknown origin) transiently transfected in HEK293T cells to agonist activity at human Nurr1 LBD transiently transfected in HEK293T cells. The class given is cell-based.
Experiment [10] is described as follows: Selectivity ratio for agonist activity at PPARdelta LBD (unknown origin) transiently transfected in HEK293T cells to agonist activity at human Nurr1 LBD transiently transfected in HEK293T cells. The class given is cell-based.
Experiment [11] can be described thus: Selectivity ratio for agonist activity at PPARalpha LBD (unknown origin) transiently transfected in HEK293T cells to agonist activity at human NOR-1 LBD transiently transfected in HEK293T cells. The class given is cell-based.
Experiment [12] in a line: Selectivity ratio for agonist activity at RXRalpha LBD (unknown origin) transiently transfected in HEK293T cells to agonist activity at human NOR-1 LBD transiently transfected in HEK293T cells. The class given is cell-based.
The target in experiment [13] is T4, Nuclear receptor subfamily 4 group A member 2 (Homo sapiens, UniProt P43354). The experiment in a line: Agonist activity at full length human Nurr1 transiently transfected in HEK293T cells co-transfected with pFR-Luc-NBRE incubated for 16 hrs by Gal4-hybrid reporter gene based Dual-glo luciferase assay. The class given is cell-based.
For experiment [14], the target named is T4, Nuclear receptor subfamily 4 group A member 2. In words: Agonist activity at full length human Nurr1 transiently transfected in HEK293T cells co-transfected with pFR-Luc-DR5 incubated for 16 hrs by Gal4-hybrid reporter gene based Dual-glo luciferase assay. The class given is cell-based.
Experiment [15] has the same target. Particulars: filed as agonist, dose 100.0 µM.

The source made the active and inactive calls. The calls are words filed in the database; no cut-off is given here.

The EC50 is the concentration at which the effect is half-maximal. Read a high EC50 as lower potency in that assay. Broadly, the Emax is the size of the effect at its maximum, as opposed to the concentration needed.

T4 sequence (P43354 whole entry, the tested form may be a part): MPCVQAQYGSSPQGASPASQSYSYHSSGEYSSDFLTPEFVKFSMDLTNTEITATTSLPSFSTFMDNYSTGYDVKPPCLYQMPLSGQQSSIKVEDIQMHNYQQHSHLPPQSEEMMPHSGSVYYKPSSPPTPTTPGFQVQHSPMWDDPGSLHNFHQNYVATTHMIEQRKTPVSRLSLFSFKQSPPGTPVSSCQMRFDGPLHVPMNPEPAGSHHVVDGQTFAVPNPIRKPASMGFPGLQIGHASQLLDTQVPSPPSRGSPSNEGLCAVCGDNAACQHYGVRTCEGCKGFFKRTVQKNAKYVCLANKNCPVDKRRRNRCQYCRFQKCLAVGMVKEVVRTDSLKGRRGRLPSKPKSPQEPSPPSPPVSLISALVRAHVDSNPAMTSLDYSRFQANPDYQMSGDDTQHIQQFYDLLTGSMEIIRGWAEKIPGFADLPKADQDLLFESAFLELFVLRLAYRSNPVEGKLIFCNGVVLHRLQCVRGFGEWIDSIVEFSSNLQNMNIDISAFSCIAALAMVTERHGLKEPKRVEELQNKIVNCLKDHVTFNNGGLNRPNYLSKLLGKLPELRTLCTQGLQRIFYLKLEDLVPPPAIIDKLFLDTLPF
Chain of Nuclear receptor subfamily 4immunitygroup A member 1 (P22736 whole entry, the tested form may be a part): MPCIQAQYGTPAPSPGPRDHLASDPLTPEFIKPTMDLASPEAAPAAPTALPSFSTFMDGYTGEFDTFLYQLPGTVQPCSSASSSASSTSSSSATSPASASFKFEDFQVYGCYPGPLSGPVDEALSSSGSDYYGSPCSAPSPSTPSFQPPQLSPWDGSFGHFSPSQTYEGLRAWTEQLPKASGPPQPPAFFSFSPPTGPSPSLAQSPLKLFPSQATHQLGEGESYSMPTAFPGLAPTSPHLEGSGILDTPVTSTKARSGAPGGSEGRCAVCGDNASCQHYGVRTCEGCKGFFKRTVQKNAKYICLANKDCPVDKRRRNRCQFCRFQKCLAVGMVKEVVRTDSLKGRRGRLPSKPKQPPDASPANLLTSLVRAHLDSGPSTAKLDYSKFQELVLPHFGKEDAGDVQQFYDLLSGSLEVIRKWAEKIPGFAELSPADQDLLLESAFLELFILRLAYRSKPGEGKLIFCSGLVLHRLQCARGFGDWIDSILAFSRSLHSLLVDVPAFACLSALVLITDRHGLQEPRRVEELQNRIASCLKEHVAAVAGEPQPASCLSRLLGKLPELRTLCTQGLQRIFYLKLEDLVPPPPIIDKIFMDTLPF
Chain of Nuclear receptor subfamily 4 group A member 3 (Q92570 whole entry, the tested form may be a part): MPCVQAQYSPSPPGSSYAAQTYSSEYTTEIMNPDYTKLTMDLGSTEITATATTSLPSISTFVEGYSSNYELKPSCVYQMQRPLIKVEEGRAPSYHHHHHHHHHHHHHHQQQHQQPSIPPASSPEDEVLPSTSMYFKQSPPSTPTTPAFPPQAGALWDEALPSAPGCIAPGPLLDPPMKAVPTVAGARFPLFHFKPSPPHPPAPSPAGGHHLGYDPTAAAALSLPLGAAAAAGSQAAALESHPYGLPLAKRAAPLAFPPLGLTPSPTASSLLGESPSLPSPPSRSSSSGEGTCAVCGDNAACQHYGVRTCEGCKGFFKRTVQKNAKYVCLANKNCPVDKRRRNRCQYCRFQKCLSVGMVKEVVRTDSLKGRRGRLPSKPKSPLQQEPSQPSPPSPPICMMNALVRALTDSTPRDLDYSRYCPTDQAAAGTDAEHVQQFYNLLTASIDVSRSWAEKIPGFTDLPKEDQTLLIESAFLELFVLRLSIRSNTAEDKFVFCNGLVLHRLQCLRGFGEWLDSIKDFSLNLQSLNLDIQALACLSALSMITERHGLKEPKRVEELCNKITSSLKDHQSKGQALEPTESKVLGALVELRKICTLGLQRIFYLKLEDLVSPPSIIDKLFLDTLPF

For `CC(C)(C)c1ccc(COc2cccc(C(=O)O)c2)cc1`, the EC50 in experiment [1] came to 140 nM; in experiment [13] it was 13 nM; in experiment [14] it was 12 nM. Moreover, the Emax in [2] came to 185%. Also, the outcome in [3], in [4] and in [5] was inactive. Further, the Selectivity ratio in experiment [6], in [7], in experiment [8], in experiment [9], in [10] and in [11] was > 30 each time. For the same compound, the Selectivity ratio in [12] was > 30. The deltaH in [15] is -4 kcal/mol.
